Results from patent publication US9096602B2, “Substituted pyrrolo[2,3-B]pyrazines as ATR kinase inhibitors” (Vertex Pharmaceuticals Incorporated, priority 2011, dated 2015).

molecular target: T1, ATR kinase (full-length ATR) (Homo sapiens, UniProt Q13535); assay: ATR Inhibition Assay (radioactive-phosphate incorporation); assay type: biochemical; details: Ki(app); 5 nM full-length ATR, 10 μM ATP, 800 μM target peptide, 25° C.; class symbols; read-out: ATR Inhibition Ki
T1 construct: Assays were carried out at 25° C. in the presence of 5 nM full-length ATR
T1 sequence (Q13535 whole entry): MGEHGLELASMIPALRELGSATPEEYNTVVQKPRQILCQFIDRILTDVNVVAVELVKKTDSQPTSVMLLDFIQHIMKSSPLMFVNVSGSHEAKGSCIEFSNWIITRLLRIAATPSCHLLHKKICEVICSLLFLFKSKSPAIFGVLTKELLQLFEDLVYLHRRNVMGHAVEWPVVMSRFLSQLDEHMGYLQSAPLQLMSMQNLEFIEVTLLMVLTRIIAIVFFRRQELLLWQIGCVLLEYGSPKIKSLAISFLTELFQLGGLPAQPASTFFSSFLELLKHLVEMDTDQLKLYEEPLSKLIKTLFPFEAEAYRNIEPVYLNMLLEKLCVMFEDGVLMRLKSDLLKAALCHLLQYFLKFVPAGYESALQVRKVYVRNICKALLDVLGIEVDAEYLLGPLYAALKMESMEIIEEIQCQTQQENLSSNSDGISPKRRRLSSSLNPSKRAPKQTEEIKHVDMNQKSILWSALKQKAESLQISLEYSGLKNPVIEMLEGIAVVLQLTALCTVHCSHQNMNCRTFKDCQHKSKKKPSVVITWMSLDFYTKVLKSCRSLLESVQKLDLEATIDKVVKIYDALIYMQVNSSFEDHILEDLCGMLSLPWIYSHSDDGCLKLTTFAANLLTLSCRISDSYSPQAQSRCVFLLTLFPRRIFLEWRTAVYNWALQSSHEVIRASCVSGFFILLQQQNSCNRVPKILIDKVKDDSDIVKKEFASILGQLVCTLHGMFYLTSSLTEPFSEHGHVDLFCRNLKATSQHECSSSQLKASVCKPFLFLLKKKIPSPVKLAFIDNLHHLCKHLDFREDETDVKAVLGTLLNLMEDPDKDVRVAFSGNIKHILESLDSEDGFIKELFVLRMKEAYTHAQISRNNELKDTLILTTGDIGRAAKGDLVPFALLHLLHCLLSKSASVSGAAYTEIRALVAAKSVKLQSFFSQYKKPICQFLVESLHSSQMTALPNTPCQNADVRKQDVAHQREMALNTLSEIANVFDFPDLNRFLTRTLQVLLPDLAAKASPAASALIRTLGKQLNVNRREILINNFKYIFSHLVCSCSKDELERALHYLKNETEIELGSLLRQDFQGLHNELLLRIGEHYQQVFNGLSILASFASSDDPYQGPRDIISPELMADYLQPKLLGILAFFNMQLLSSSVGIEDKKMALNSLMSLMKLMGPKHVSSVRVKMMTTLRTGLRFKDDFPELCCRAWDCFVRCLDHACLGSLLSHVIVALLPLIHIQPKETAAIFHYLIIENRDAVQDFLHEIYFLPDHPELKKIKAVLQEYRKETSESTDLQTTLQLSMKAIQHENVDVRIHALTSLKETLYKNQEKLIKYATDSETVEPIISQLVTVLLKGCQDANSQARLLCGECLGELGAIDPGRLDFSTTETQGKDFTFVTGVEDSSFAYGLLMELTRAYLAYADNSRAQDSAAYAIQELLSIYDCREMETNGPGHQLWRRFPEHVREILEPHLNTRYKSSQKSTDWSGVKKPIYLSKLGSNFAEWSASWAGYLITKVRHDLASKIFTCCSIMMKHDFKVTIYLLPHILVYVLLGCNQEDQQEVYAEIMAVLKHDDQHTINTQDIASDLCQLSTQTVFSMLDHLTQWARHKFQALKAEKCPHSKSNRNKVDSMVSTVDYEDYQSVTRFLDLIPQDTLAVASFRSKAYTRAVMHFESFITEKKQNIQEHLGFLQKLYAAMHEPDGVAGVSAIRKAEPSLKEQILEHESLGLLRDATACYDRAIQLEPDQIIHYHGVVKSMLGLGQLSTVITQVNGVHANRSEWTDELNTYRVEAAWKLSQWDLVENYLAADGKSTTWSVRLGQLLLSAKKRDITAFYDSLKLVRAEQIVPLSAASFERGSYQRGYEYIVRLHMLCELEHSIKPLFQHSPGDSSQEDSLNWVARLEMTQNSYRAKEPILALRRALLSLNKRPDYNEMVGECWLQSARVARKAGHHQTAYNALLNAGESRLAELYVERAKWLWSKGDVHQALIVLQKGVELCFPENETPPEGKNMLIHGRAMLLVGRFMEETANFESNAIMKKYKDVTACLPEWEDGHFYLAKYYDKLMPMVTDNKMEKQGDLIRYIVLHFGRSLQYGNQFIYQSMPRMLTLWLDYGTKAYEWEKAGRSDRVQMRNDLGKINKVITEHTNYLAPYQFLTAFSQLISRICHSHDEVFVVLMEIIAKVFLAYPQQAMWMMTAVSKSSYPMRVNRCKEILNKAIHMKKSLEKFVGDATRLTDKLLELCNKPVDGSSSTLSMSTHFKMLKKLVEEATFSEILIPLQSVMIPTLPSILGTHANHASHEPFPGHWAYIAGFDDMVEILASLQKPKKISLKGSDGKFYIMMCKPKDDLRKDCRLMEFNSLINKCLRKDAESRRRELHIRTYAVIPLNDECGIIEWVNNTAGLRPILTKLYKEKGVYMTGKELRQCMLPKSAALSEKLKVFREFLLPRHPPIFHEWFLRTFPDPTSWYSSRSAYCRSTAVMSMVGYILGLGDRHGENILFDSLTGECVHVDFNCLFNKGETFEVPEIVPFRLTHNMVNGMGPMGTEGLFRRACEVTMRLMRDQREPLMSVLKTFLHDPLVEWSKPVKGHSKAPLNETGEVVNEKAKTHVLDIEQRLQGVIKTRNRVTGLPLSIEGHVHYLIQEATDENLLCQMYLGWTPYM
Outline: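 Radiometric 33P filter assay with 5 nM full-length ATR in 50 mM Tris/HCl pH 7.5, 10 mM MgCl2, 1 mM DTT at 25 °C. Final 10 μM [γ-33P]ATP and 800 μM peptide; 10 min compound preincubation, ATP start, stopped at 24 h with phosphoric acid/ATP. Ki(app) from non-linear regression of background-corrected initial rates.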

SMILES	Ki [nM]
Cc1cccc(C)c1CNC(=O)c1c[nH]c2ncc(-c3ccc(S(=O)(=O)C(C)C)cc3)nc12 [Compound I-89, N-[(2,6-dimethylphenyl)methyl]-2-(4-isopropylsulfonylphenyl)-5H-pyrrolo[2,3-b]pyrazine-7-carboxamide]	< 100
Cc1ccc([C@H](CCO)NC(=O)c2c[nH]c3ncc(-c4ccc(S(=O)(=O)C(C)C)cc4)nc23)cc1 [Compound I-91, N-[(1S)-3-hydroxy-1-(p-tolyl)propyl]-2-(4-isopropylsulfonylphenyl)-5H-pyrrolo[2,3-b]pyrazine-7-carboxamide]	100 to 500
CC(C)S(=O)(=O)c1ccc(-c2cnc3[nH]cc(C(=O)NCc4cccc(Cl)c4F)c3n2)cc1 [Compound I-92, N-[(3-chloro-2-fluoro-phenyl)methyl]-2-(4-isopropylsulfonylphenyl)-5H-pyrrolo[2,3-b]pyrazine-7-carboxamide]	< 100
CC(C)S(=O)(=O)c1ccc(-c2cnc3[nH]cc(C(=O)NCC4CCC(CN)CC4)c3n2)cc1 (stereo not drawn) [Compound I-93, N-[[4-(aminomethyl)cyclohexyl]methyl]-2-(4-isopropylsulfonylphenyl)-5H-pyrrolo[2,3-b]pyrazine-7-carboxamide]	100 to 500
CC(C)S(=O)(=O)c1ccc(-c2cnc3[nH]cc(C(=O)NCC4(O)CCCCC4)c3n2)cc1 [Compound I-94, N-[(1-hydroxycyclohexyl)methyl]-2-(4-isopropylsulfonylphenyl)-5H-pyrrolo[2,3-b]pyrazine-7-carboxamide]	< 100
CCN(C(=O)c1c[nH]c2ncc(-c3ccc(S(=O)(=O)C(C)C)cc3)nc12)C1CCCCC1 [Compound I-95, N-cyclohexyl-N-ethyl-2-(4-isopropylsulfonylphenyl)-5H-pyrrolo[2,3-b]pyrazine-7-carboxamide]	500 to 5000
CC(C)S(=O)(=O)c1ccc(-c2cnc3[nH]cc(C(=O)NC4CCC4)c3n2)cc1 [Compound I-97, N-cyclobutyl-2-(4-isopropylsulfonylphenyl)-5H-pyrrolo[2,3-b]pyrazine-7-carboxamide]	100 to 500
CC(C)S(=O)(=O)c1ccc(-c2cnc3[nH]cc(C(=O)NOc4ccccc4)c3n2)cc1 [Compound I-100, 2-(4-isopropylsulfonylphenyl)-N-phenoxy-5H-pyrrolo[2,3-b]pyrazine-7-carboxamide]	< 100
CC(C)S(=O)(=O)c1ccc(-c2cnc3[nH]cc(C(=O)NCC4CCCCC4O)c3n2)cc1 (stereo not drawn) [Compound I-101, N-[(2-hydroxycyclohexyl)methyl]-2-(4-isopropylsulfonylphenyl)-5H-pyrrolo[2,3-b]pyrazine-7-carboxamide]	< 100
Cc1cccc([C@@H](CCO)NC(=O)c2c[nH]c3ncc(-c4ccc(S(=O)(=O)C(C)C)cc4)nc23)c1 [Compound I-102, N-[(1R)-3-hydroxy-1-(m-tolyl)propyl]-2-(4-isopropylsulfonylphenyl)-5H-pyrrolo[2,3-b]pyrazine-7-carboxamide]	100 to 500
CC(C)S(=O)(=O)c1ccc(-c2cnc3[nH]cc(C(=O)NC4CCS(=O)(=O)C4)c3n2)cc1 (stereo not drawn) [Compound I-103, N-(1,1-dioxothiolan-3-yl)-2-(4-isopropylsulfonylphenyl)-5H-pyrrolo[2,3-b]pyrazine-7-carboxamide]	500 to 5000
CC(C)S(=O)(=O)c1ccc(-c2cnc3[nH]cc(C(=O)NC4CCOCC4)c3n2)cc1 [Compound I-104, 2-(4-isopropylsulfonylphenyl)-N-tetrahydropyran-4-yl-5H-pyrrolo[2,3-b]pyrazine-7-carboxamide]	500 to 5000
CC(C)S(=O)(=O)c1ccc(-c2cnc3[nH]cc(C(=O)NCC4(C)COC4)c3n2)cc1 [Compound I-105, 2-(4-isopropylsulfonylphenyl)-N-[(3-methyloxetan-3-yl)methyl]-5H-pyrrolo[2,3-b]pyrazine-7-carboxamide]	500 to 5000
CC(C)S(=O)(=O)c1ccc(-c2cnc3[nH]cc(C(=O)N[C@@H](C)CO)c3n2)cc1 [Compound I-106, N-[(1S)-2-hydroxy-1-methyl-ethyl]-2-(4-isopropylsulfonylphenyl)-5H-pyrrolo[2,3-b]pyrazine-7-carboxamide]	100 to 500
CCC(CC)NC(=O)c1c[nH]c2ncc(-c3ccc(S(=O)(=O)C(C)C)cc3)nc12 [Compound I-107, N-(1-ethylpropyl)-2-(4-isopropylsulfonylphenyl)-5H-pyrrolo[2,3-b]pyrazine-7-carboxamide]	500 to 5000
CC(C)S(=O)(=O)c1ccc(-c2cnc3[nH]cc(C(=O)NC(c4ccccc4)c4ccccc4)c3n2)cc1 [Compound I-108, N-benzhydryl-2-(4-isopropylsulfonylphenyl)-5H-pyrrolo[2,3-b]pyrazine-7-carboxamide]	500 to 5000

Next, values leading:

Ki [nM]	SMILES
500 to 5000	CC(c1ccccc1F)N(C)C(=O)c1c[nH]c2ncc(-c3ccc(S(=O)(=O)C(C)C)cc3)nc12 (stereo not drawn) [Compound I-109, N-[1-(2-fluorophenyl)ethyl]-2-(4-isopropylsulfonylphenyl)-N-methyl-5H-pyrrolo[2,3-b]pyrazine-7-carboxamide]
100 to 500	COC[C@H](C)NC(=O)c1c[nH]c2ncc(-c3ccc(S(=O)(=O)C(C)C)cc3)nc12 [Compound I-110, 2-(4-isopropylsulfonylphenyl)-N-[(1S)-2-methoxy-1-methyl-ethyl]-5H-pyrrolo[2,3-b]pyrazine-7-carboxamide]
< 100	CCC[C@@H](CO)NC(=O)c1c[nH]c2ncc(-c3ccc(S(=O)(=O)C(C)C)cc3)nc12 [Compound I-112, N-[(1S)-1-(hydroxymethyl)butyl]-2-(4-isopropylsulfonylphenyl)-5H-pyrrolo[2,3-b]pyrazine-7-carboxamide]
500 to 5000	CC(C)S(=O)(=O)c1ccc(-c2cnc3[nH]cc(C(=O)N4CCN(C)CC4)c3n2)cc1 [Compound I-114, [2-(4-isopropylsulfonylphenyl)-5H-pyrrolo[2,3-b]pyrazin-7-yl]-(4-methylpiperazin-1-yl)methanone]
500 to 5000	CC(C)S(=O)(=O)c1ccc(-c2cnc3[nH]cc(C(=O)N4CCCCC4CO)c3n2)cc1 (stereo not drawn) [Compound I-115, [2-(hydroxymethyl)-1-piperidyl]-[2-(4-isopropylsulfonylphenyl)-5H-pyrrolo[2,3-b]pyrazin-7-yl]methanone]
100 to 500	CC[C@@H](CO)NC(=O)c1c[nH]c2ncc(-c3ccc(S(=O)(=O)C(C)C)cc3)nc12 [Compound I-117, N-[(1S)-1-(hydroxymethyl)propyl]-2-(4-isopropylsulfonylphenyl)-5H-pyrrolo[2,3-b]pyrazine-7-carboxamide]
100 to 500	CC(C)S(=O)(=O)c1ccc(-c2cnc3[nH]cc(C(=O)NC4CCOC4)c3n2)cc1 (stereo not drawn) [Compound I-118, 2-(4-isopropylsulfonylphenyl)-N-tetrahydrofuran-3-yl-5H-pyrrolo[2,3-b]pyrazine-7-carboxamide]
100 to 500	COCCNC(=O)c1c[nH]c2ncc(-c3ccc(S(=O)(=O)C(C)C)cc3)nc12 [Compound I-119, 2-(4-isopropylsulfonylphenyl)-N-(2-methoxyethyl)-5H-pyrrolo[2,3-b]pyrazine-7-carboxamide]

same assay, conditions: Ki(app); 5 nM full-length ATR, 10 μM ATP, 800 μM target peptide, 25° C.; given as numeric lower bound without unit; read-out: ATR Inhibition Ki

SMILES	Ki [nM]
CC(C)S(=O)(=O)c1ccc(-c2cnc3[nH]cc(C(=O)NCC4(N)CCCCC4)c3n2)cc1 [Compound I-90, N-[(1-aminocyclohexyl)methyl]-2-(4-isopropylsulfonylphenyl)-5H-pyrrolo[2,3-b]pyrazine-7-carboxamide]	> 250
CC(C)S(=O)(=O)c1ccc(-c2cnc3[nH]cc(C(=O)N4CCCN(C)CC4)c3n2)cc1 [Compound I-96, [2-(4-isopropylsulfonylphenyl)-5H-pyrrolo[2,3-b]pyrazin-7-yl]-(4-methyl-1,4-diazepan-1-yl)methanone]	> 4000
CC(C)S(=O)(=O)c1ccc(-c2cnc3[nH]cc(C(=O)N4CCCC(N(C)C)C4)c3n2)cc1 (stereo not drawn) [Compound I-98, [3-(dimethylamino)-1-piperidyl]-[2-(4-isopropylsulfonylphenyl)-5H-pyrrolo[2,3-b]pyrazin-7-yl]methanone]	> 4000
CC(C)S(=O)(=O)c1ccc(-c2cnc3[nH]cc(C(=O)N4CCC(N(C)C)CC4)c3n2)cc1 [Compound I-99, [4-(dimethylamino)-1-piperidyl]-[2-(4-isopropylsulfonylphenyl)-5H-pyrrolo[2,3-b]pyrazin-7-yl]methanone]	> 4000

Next, values leading:

Ki [nM]	SMILES
> 250	CC(C)S(=O)(=O)c1ccc(-c2cnc3[nH]cc(C(=O)NC4CN(C(=O)OC(C)(C)C)C4)c3n2)cc1 [Compound I-111, tert-butyl 3-[[2-(4-isopropylsulfonylphenyl)-5H-pyrrolo[2,3-b]pyrazine-7-carbonyl]amino]azetidine-1-carboxylate]
> 1000	CC(C)S(=O)(=O)c1ccc(-c2cnc3[nH]cc(C(=O)NC4(CO)CC4)c3n2)cc1 [Compound I-113, N-[1-(hydroxymethyl)cyclopropyl]-2-(4-isopropylsulfonylphenyl)-5H-pyrrolo[2,3-b]pyrazine-7-carboxamide]
> 1000	CC(C)S(=O)(=O)c1ccc(-c2cnc3[nH]cc(C(=O)N4CC5CCC(C4)O5)c3n2)cc1 [Compound I-116, [2-(4-isopropylsulfonylphenyl)-5H-pyrrolo[2,3-b]pyrazin-7-yl]-(8-oxa-3-azabicyclo[3.2.1]octan-3-yl)methanone]
> 2500	CC(C)S(=O)(=O)c1ccc(-c2cnc3[nH]cc(C(=O)N4CCOCC4)c3n2)cc1 [Compound I-120, [2-(4-isopropylsulfonylphenyl)-5H-pyrrolo[2,3-b]pyrazin-7-yl]-morpholino-methanone]
> 1000	CC(C)S(=O)(=O)c1ccc(-c2cnc3[nH]cc(C(=O)N(CCO)C4CCCCC4)c3n2)cc1 [Compound I-121, N-cyclohexyl-N-(2-hydroxyethyl)-2-(4-isopropylsulfonylphenyl)-5H-pyrrolo[2,3-b]pyrazine-7-carboxamide]
